In assay [1] the target is T1, catalytic domain of human Bub1 (amino acids 704-1085) (Homo sapiens, UniProt O43683).
T1 construct: catalytic domain of human Bub1 (amino acids 704-1085); His6 (N); made in house; host or cells: Hi5 insect cells
Briefly: Bub1 kinase assay (TR-FRET). It is filed as biochemical. The conditions noted are these: 10 μM ATP, 1 μM peptide substrate, median, read-out: Biological Assay 1: Bub1 kinase assay median IC50. From the text:
Bub1-inhibitory activities of compounds described in the present invention were quantified using a time-resolved fluorescence energy transfer (TR-FRET) kinase assay which measures phosphorylation of the synthetic peptide Biotin-Ahx-VLLPKKSFAEPG (C-terminus in amide form), purchased from e.g. Biosyntan (Berlin, Germany) by the (recombinant) catalytic domain of human Bub1 (amino acids 704-1085), expressed in Hi5 insect cells with an N-terminal His6-tag and purified by affinity- (Ni-NTA) and size exclusion chromatography.
In a typical assay 11 different concentrations of each compound (0.1 nM, 0.33 nM, 1.1 nM, 3.8 nM, 13 nM, 44 nM, 0.15 μM, 0.51 μM, 1.7 μM, 5.9 μM and 20 μM) were tested in duplicate within the same microtiter plate. To this end, 100-fold concentrated compound solutions (in DMSO) were previously prepared by serial dilution (1:3.4) of 2 mM stocks in a clear low volume 384-well source microtiter plate (Greiner Bio-One, Frickenhausen, Germany), from which 50 nL of compounds were transferred into a black low volume test microtiter plate from the same supplier. Subsequently, 2 μL of Bub1 (the final concentration of Bub1 was adjusted depending on the activity of the enzyme lot in order to be within the linear dynamic range of the assay: typically ˜200 ng/mL were used) in aqueous assay buffer [50 mM Tris/HCl pH 7.5, 10 mM magnesium chloride (MgCl2), 200 mM potassium chloride (KCl), 1.0 mM dithiothreitol (DTT), 0.1 mM sodium ortho-vanadate, 1% (v/v) glycerol, 0.01% (w/v) bovine serum albumine (BSA), 0.005% (v/v) Trition X-100 (Sigma), 1× Complete EDTA-free protease inhibitor mixture (Roche)] were added to the compounds in the test plate and the mixture was incubated for 15 min at 22° C. to allow pre-equilibration of the putative enzyme-inhibitor complexes before the start of the kinase reaction, which was initiated by the addition of 3 μL 1.67-fold concentrated solution (in assay buffer) of adenosine-tri-phosphate (ATP, 10 μM final concentration) and peptide substrate (1 μM final concentration). The resulting mixture (5 μL final volume) was incubated at 22° C. during 60 min, and the reaction was stopped by the addition of 5 μL of an aqueous EDTA-solution (50 mM EDTA, in 100 mM HEPES pH 7.5 and 0.2% (w/v) bovine serum albumin) which also contained the TR-FRET detection reagents (0.2 μM streptavidin-XL665 [Cisbio Bioassays, Codolet, France] and 1 nM anti-phosho-Serine antibody [Merck Millipore, cat. #35-001] and 0.4 nM LANCE EU-W1024 labeled anti-mouse IgG antibody [Perkin-Elmer, product no. AD0077, alternatively a Terbium-cryptate-labeled anti-mouse IgG antibody from Cisbio Bioassays can be used]). The stopped reaction mixture was further incubated 1 h at 22° C. in order to allow the formation of complexes between peptides and detection reagents. Subsequently, the amount of product was evaluated by measurement of the resonance energy transfer from the Eu-chelate-antibody complex recognizing the Phosphoserine residue to the streptavidin-XL665 bound to the biotin moiety of the peptide. To this end, the fluorescence emissions at 620 nm and 665 nm after excitation at 330-350 nm were measured in GTR-FRET plate reader, e.g. a Rubystar or Pherastar (both from BMG Labtechnologies, Offenburg, Germany) or a Viewlux (Perkin-Elmer) and the ratio of the emissions (665 nm/622 nm) was taken as indicator for the amount of phosphorylated substrate. The data were normalised using two sets of (typically 32-) control wells for high- (=enzyme reaction without inhibitor=0%=Minimum inhibition) and low- (=all assay components without enzyme=100%=Maximum inhibition) Bub1 activity. IC50 values were calculated by fitting the normalized inhibition data to a 4-parameter logistic equation (Minimum, Maximum, IC50, Hill; Y=Max+(Min−Max)/(1+(X/IC50)Hill)).

For another assay, the system named is HeLa cell line. Briefly: Proliferation assay (crystal violet staining). It is filed as cell-based. The conditions noted are these: Homo sapiens, 96 h, 4 days incubation, range 0.001-10 μM, median, read-out: Biological Assay 2: Proliferation assay (HeLa cell line) median IC50. How it is done:
Cultivated tumor cells (cells were ordered from ATCC, except HeLa-MaTu and HeLa-MaTu-ADR, which were ordered from EPO-GmbH, Berlin) were plated at a density of 1000 to 5000 cells/well, depending on the growth rate of the respective cell line, in a 96-well multititer plate in 200 μL of their respective growth medium supplemented 10% fetal calf serum. After 24 h, the cells of one plate (zero-point plate) were stained with crystal violet (see below), while the medium of the other plates was replaced by fresh culture medium (200 μL), to which the test substances were added in various concentrations (0 μM, as well as in the range of 0.001-10 μM; the final concentration of the solvent DMSO was 0.5%). The cells were incubated for 4 days in the presence of test substances. Cell proliferation was determined by staining the cells with crystal violet: the cells were fixed by adding 20 μL/measuring point of an 11% glutaric aldehyde solution for 15 min at rt. After three washing cycles of the fixed cells with water, the plates were dried at rt. The cells were stained by adding 100 μL/measuring point of a 0.1% crystal violet solution (pH 3.0). After three washing cycles of the stained cells with water, the plates were dried at rt. The dye was dissolved by adding 100 μL/measuring point of a 10% acetic acid solution. Absorbtion was determined by photometry at a wavelength of 595 nm. The change of cell number, in percent, was calculated by normalization of the measured values to the aborbtion values of the zero-point plate (=0%) and the absorbtion of the untreated (0 μm) cells (=100%). The IC50 values were determined by means of a 4 parameter fit.

T1 sequence (O43683 704-1085): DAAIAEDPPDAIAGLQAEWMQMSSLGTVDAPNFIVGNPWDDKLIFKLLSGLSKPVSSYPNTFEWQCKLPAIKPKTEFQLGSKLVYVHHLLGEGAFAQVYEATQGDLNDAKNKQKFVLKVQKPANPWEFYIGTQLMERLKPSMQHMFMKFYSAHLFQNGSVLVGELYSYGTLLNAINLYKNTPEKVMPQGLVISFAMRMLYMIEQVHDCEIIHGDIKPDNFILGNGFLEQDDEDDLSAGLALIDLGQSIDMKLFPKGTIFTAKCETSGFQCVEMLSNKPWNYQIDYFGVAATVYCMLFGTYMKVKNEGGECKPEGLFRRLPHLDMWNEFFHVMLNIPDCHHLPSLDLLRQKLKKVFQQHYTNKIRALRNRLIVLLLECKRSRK

Consider `NC(=O)c1cnccc1Nc1nc(-c2nn(Cc3ccccc3F)c3c2CCC3)ncc1OCCO` [Example 2-10-1, 4-({2-[1-(2-fluorobenzyl)-1,4,5,6-tetrahydrocyclopenta[c]pyrazol-3-yl]-5-(2-hydroxyethoxyl)pyrimidin-4-yl}amino)nicotinamide], for which the IC50 in assay [1] is 70 nM; with HeLa cell line, 50000 nM.
The matching figures for `COc1c(N)nc(-c2nn(Cc3ccccc3F)c3c2CCC3)nc1Nc1ccncc1` [Example 2-1-4, 2-[1-(2-fluoro-benzyl)-1,4,5,6-tetrahydrocyclopenta [c]pyrazol-3-yl]-5-methoxy-N-(pyridin-4-yl)pyrimidin-4,6-diamine]: 90 nM and not below 10000 nM.
